Patent publication US12485191B2, “Radiopharmaceuticals and methods of use thereof” (BOARD OF REGENTS OF THE UNIVERSITY OF NEBRASKA, priority 2017, dated 2025)
Marks after values point to notes of the source that are not given here.

How the values were obtained:
[1] = Distribution coefficient (Log D7.4) of the conjugates; assay type: physicochemical
Experimental: Distribution Coefficient (Log D7.4) of the Conjugates The distribution coefficient was determined for each ^177Lu-labeled conjugate. In a 1.5 mL centrifuge tube, 0.5 mL of 1-octanol was added to 0.5 mL of PBS (pH 7.4) containing the radiolabeled peptide (500,000 cpm). The solution was vigorously vortexed for 2 minutes at room temperature and subsequently centrifuged to yield two immiscible layers. The radioactivity of the aliquots (100 μL) taken from each layer were quantified by the gamma counter and the Log D7.4 for each conjugates was calculated.

[2] = target: CatB (Homo sapiens, UniProt P07858); experiment: CatB inhibition of GRPR-targeted agents; assay type: biochemical
Experimental: The Inhibition of Cathepsin B Activity by the Conjugates The phosphate buffer (0.1 M, pH=5.8) containing EDTA (1 mM), DTT (2.7 mM), and Brij®35 (0.03%) was prepared before the assay. […] The solution of cathepsin B (human Liver) in assay buffer (50 μL, 0.544 nM) was added to the mixture which was further incubated at 37° C. for 20 minutes. The fluorescence of the liberated aminomethylcoumarin at 460 nM using 355 nm excitation was measured and the IC50 of the cathepsin B inhibition versus the samples without the inhibitor was determined by nonlinear regression using GraphPad Prism 5.

[3] = tested on: PC-3 cells; experiment: Efflux study in PC-3 cells; assay type: cell-based, human; conditions: over a 24 hour time period
[4] = tested on: PC-3 cells; experiment: Cellular adduct study (SDS-PAGE of cellular lysates); assay type: cell-based, human
[5] = tested on: PC-3 tumor; experiment: Autoradiography of SDS-PAGE of tissue lysates from PC-3 tumor bearing mice; assay type: in vivo; conditions: liver, pancreas, kidney at 24 and 72 hours post-injection
[6] = tested on: PC-3 tumor; conditions: mouse, in vivo
[7] = target: T1, cathepsin B (human Liver) (Homo sapiens, UniProt P07858); experiment: Inhibition constant (Ki) of the compounds to cathepsin B; assay type: biochemical
T1 construct: from tissue; host or cells: human liver
Experimental: Determination of the Km and Vmax of Cathepsin B for Z-Arg-Arg-AMC
The solution of cathepsin B (human Liver) (50 μL, 2 nM) in assay buffer used above was mixed with 50 μL of solution of substrate Z-Arg-Arg-AMC in the assay buffer at different concentrations ([S]) (25 μM, 50 μM, 100 μM, 500 μM and 1 mM). The mixture was incubated at 37° C. and the fluorescence of the liberated aminomethylcoumarin at 460 nM using 355 nm excitation was measured at predetermined time points (0, 2, 4, 6, 8, and 10 minutes). The fluorescence intensity was plotted versus time and the reaction rates (v0) were calculated as the slope of the trend lines obtained by liner regression. Km and maximum reaction rate (Vmax-obs) was determined from the equation v0=Vmax[S]/(Km+[S]) and solved by nonlinear regression using GraphPad Prism 5. All measurements were in biological triplicate.
Determination of the Inhibition Constant (Ki) of the Compounds to Cathepsin B
The cathepsin B (human Liver) in assay buffer (25 μL) was mixed with the conjugate (25 μL) in 96-well plate. After the solution was mixed, the Z-Arg-Arg-AMC in assay buffer (50 μL) was added to the well, yielding a final cathepsin B concentration of 1 nM, conjugate concentration ([C]) of 15 nM or 5 μM, and substrate concentration ([S]) of 25 μM, 50 μM, 100 μM, 500 μM and 1 mM. The mixture was incubated at 37° C. and the fluorescence of the liberated aminomethylcoumarin at 460 nM using 355 nm excitation was measured at predetermined time points (0, 2, 4, 6, 8, and 10 minutes). The fluorescence intensity was plotted versus time with observed reaction rates (v0-obs) calculated as the slope of the trend lines obtained by liner regression. The observed rate constant (Kobs) and observed maximum reaction rate (Vmax-obs) was determined from the equation v0-obs=Vmax-obs [S]/(Kobs+[S]) and solved by nonlinear regression using GraphPad Prism 5. The Ki was calculated from the equation Kobs=Km (1+[C]/Ki). All measurements were in biological triplicate.

[8] = Distribution coefficient (Log D7.4) of the conjugates; assay type: physicochemical; conditions: determined by HPLC analysis
[9] = tested on: HT-29 cells; experiment: HT-29 cell efflux study; assay type: cell-based, human; conditions: at 24 hours
Experimental: The HT-29 Cell Efflux Studies
The ^177Lu radioconjugate was added to a sterilized 1.5 mL microcentrifuge tube containing HT-29 cells ˜1×10^6) suspended in 300 μL of cell culture medium, yielding a final radioactivity concentration of 100,000 cpm/100 μL, and was incubated for 2 hours at 37° C. After the removal of the culture medium, the cells were washed with fresh medium (5×500 μL) followed by the addition of 500 μL of fresh medium for the efflux assay. At 0, 1, 2, 4, 8, and 24 hour time interval, fresh medium (500 μL) was added to the tube to replace the old medium which was harvested for quantitative analysis of the effluxed radioactivity using a gamma counter. The cells were lysed with a 10% aqueous SDS solution at 24 hour to quantify the remaining internalized radioactivity. The effluxed fraction is expressed as a percentage of the total radioactivity added to the tube, which is the sum of the effluxed and internalized fractions obtained from the study.

[10] = tested on: HT-29 cells; experiment: Intracellular trapping of the radioconjugates in living HT-29 cells (GPC, SDS-PAGE); assay type: cell-based, human; conditions: for intracellular adduct formation (in words): live HT-29 cells, GPC and SDS-PAGE
Experimental: Intracellular Trapping of the Radioconjugates in Living HT-29 Cells
To the HT-29 cells (1×10^6/well) seeded in 6-well plates was added the radioconjugates (0.74 MBq, 20 μCi) in 1 mL of cell culture medium. The cells were incubated at 37° C. for 4 hours and the medium was removed by vacuum followed washing with PBS (2×2 mL). The cells (˜3×10^6) were trypsinized and combined in microcentrifuge. The RIPA buffer (100 μL) containing Halttmprotease inhibitor (100×, 1 μL) was added to the cell pellet and vigorously vortexed for 1 minute. The suspension was incubated on ice for 15 minutes and centrifuged to remove the pellet. The supernatant (80 μL) was equally divided into two portions. The first portion (40 μL) was directly analyzed by radioactive-GPC with a flow rate of 0.6 mL/minute (40% ACN in PBS containing 0.1% sodium azide). The second portion (40 μL) of the cell lysate was mixed with Novex Tris-Glycine SDS sample buffer (2×) (40 μL) and incubated for another 15 minutes. The mixture (30 μL) was loaded onto a Novex 16% tris-glycine gel and analyzed by SDS-PAGE at 110 V for 90 minutes. The autoradiograph of the SDS-PAGE was performed as described above.

[11] = target: T1, cathepsin B (human Liver); experiment: Cathepsin B binding of the radioconjugates (autoradiographic SDS-PAGE); conditions: 2 hours
Experimental: Cathepsin B Binding of the Radioconjugates This procedure uses the same solutions as described above. The cathepsin B (human Liver)(3 nM, 10 μL) in storing buffer was added to the solution of the radioconjugate (500,000 cpm) in 40 μL of binding assay buffer and kept on ice for 2 hours. An aliquot (25 μL) of the solution was mixed with Novex Tris-Glycine SDS sample buffer (2×) (25 μL) and incubated for a further 10 minutes. The mixtures (20 μL) were loaded onto a Novex 16% tris-glycine gel and analyzed by SDS-PAGE at 110 V for 90 minutes. The autoradiograph of the SDS-PAGE was performed as described above.

Structure (SMILES) | logD7.4 ([1]; GRPR-targeted agents) | inhibition of catB (in words) [2] | reduction in efflux compared to the analogous control [3] [%] | cellular adducts (in words) [4] | adduct formation in tissue lysates (in words) [5] | tumor retention [6] [%] | logD7.4 [8] | CatB K1 [7] | efflux [9] [%] | intracellular adduct formation (in words) [10] | other results
CC(C)C[C@H](NC(=O)C1OC1C(=O)O)C(=O)N[C@@H](CCCNC(=N)N)C(=O)NCCn1cc(C[C@H](NC(=O)CN2CCN(CC(=O)O)CCN(CC(=O)O)CCN(CC(=O)O)CC2)C(=O)NCCOCCOCCOCCOCCC(=O)N[C@H](Cc2ccccc2)C(=O)N[C@@H](CCC(N)=O)C(=O)N[C@@H](Cc2c[nH]c3ccccc23)C(=O)N[C@@H](C)C(=O)N[C@H](C(=O)NCC(=O)N[C@@H](Cc2c[nH]cn2)C(=O)N[C@@H](CC(C)C)[C@@H](O)CC(=O)N[C@H](CC(C)C)C(N)=O)C(C)C)nn1 (stereo partly shown) [^177Lu-A-ANT, metal not drawn] | −2.3 ± 0.2 | low nanomolar inhibition | 5 | cellular adducts are observed | formation of adducts | 32 |  |  |  |  | 
Cc1cc(C)c(C(=O)OCC(=O)[C@H](CCCCN)NC(=O)[C@H](Cc2ccccc2)NC(=O)OCc2ccccc2)c(C)c1 [Compound 1a] |  |  |  |  |  |  | 2.08 ± 0.08^a |  |  |  | Ki ([7]; read-out: CatB K1): 23 ± 1 nM
CSCC[C@H](NC(=O)[C@H](CC(C)C)NC(=O)[C@H](Cc1c[nH]cn1)NC(=O)CNC(=O)[C@@H](NC(=O)[C@H](C)NC(=O)[C@H](Cc1c[nH]c2ccccc12)NC(=O)[C@H](CCC(N)=O)NC(=O)CCOCCOCCOCCOCCNC(=O)[C@H](Cc1cn(CCNC(=O)[C@H](CCCNC(=N)N)NC(=O)[C@H](CC(C)C)NC(=O)C2OC2C(=O)O)nn1)NC(=O)CN1CCN(CC(=O)O)CCN(CC(=O)O)CCN(CC(=O)O)CC1)C(C)C)C(N)=O (stereo partly shown) [^177Lu-A-AG, metal not drawn] | −3.1 ± 0.1 | low nanomolar inhibition | ~20 | cellular adducts are observed | formation of adducts | 62 |  |  |  |  | 
NCCCCC(NC(=O)C(Cc1ccccc1)NC(=O)OCc1ccccc1)C(=O)NCCc1ccccc1 (stereo not shown) [Compound 1b] |  |  |  |  |  |  | 2.51 ± 0.02^a | ni^c |  |  | 
Cc1cc(C)c(C(=O)OCC(=O)[C@H](CCCCNC(=O)COCCOCCOCCn2cc(C[C@H](NC(=O)CN3CCN(CC(=O)O)CCN(CC(=O)O)CCN(CC(=O)O)CC3)C(=O)NCCC(=O)N[C@@H](CCCCN)C(=O)N3CCC[C@H]3C(=O)N(C)[C@@H](CCCNC(=N)N)C(=O)N[C@@H](CCCNC(=N)N)C(=O)N3CCC[C@H]3C(=O)N[C@@H](Cc3c(C)cc(O)cc3C)C(=O)N[C@H](C(=O)N[C@@H](CC(C)C)C(=O)O)C(C)(C)C)nn2)NC(=O)[C@H](Cc2ccccc2)NC(=O)OCc2ccccc2)c(C)c1 [Compound 2c] |  |  |  |  |  |  |  |  | 36 | multiple macromolecule adducts formed | percentage of macromolecular adducts with respect to total intracellular activity ([10]; GPC profile, HT-29 cells, 4 hours incubation): 61%; adduct formation with CatB (in words) [11]: adduct formation
Cc1cc(O)cc(C)c1C[C@H](NC(=O)[C@@H]1CCCN1C(=O)[C@H](CCCNC(=N)N)NC(=O)[C@H](CCCNC(=N)N)N(C)C(=O)[C@@H]1CCCN1C(=O)[C@H](CCCCN)NC(=O)CCNC(=O)[C@H](Cc1cn(CCOCCOCCOCC(=O)NCCCC[C@H](NC(=O)[C@H](Cc2ccccc2)NC(=O)OCc2ccccc2)C(=O)NCCc2ccccc2)nn1)NC(=O)CN1CCN(CC(=O)O)CCN(CC(=O)O)CCN(CC(=O)O)CC1)C(=O)N[C@H](C(=O)N[C@@H](CC(C)C)C(=O)O)C(C)(C)C [Compound 3a] |  |  |  |  |  |  |  | ni | 66 | no adduct formation | logD7.4 ([1]; determined by radiometric analysis, 177Lu-labeled conjugate): −1.56 ± 0.07^b; Ki and inhibition IC50 to CatB (in words) [7]: did not demonstrate any inhibition
